Structures can show the parent of a compound that is named as a salt.

The values that follow come from patent publication US9617229B2, “Phenylmorpholines and analogues thereof” (Research Triangle Institute, priority 2010, dated 2017).

One experiment addresses T1, NET (Rattus norvegicus, UniProt Q63380).
T1 construct: the supernatants were retained on ice (synaptosomal preparation); from tissue; host or cells: rat whole brain minus cerebellum and caudate, synaptosomes
As to the kind of experiment: NE release assay (synaptosomes, [3H]MPP+). Format: biochemical. Particulars: for activation at 10 µM: Table 3; for EC50: NE Rel (EC50). The method, then: (§1) Rat caudate (for DA release) or whole brain minus cerebellum and caudate (for NE and 5-HT release), was homogenized in ice-cold 10% sucrose containing 1 μM reserpine. Nomifensine (100 nM) and GBR12935 (100 nM) were added to the sucrose solution for [^3H]5-HT release experiments to block any potential [^3H]5-HT reuptake into NE and DA nerve terminals. For the DA release assay, 100 nM desipramine and 100 nM citalopram were added to block [^3H]MPP^+ uptake into NE and 5-HT nerves. For the NE release assay, 50 nM GBR12935 and 100 nM citalopram were added to block [^3H]MPP^+ uptake into DA and 5-HT nerves. After 12 strokes with a Potter-Elvehjem homogenizer, homogenates were centrifuged at 1000×g for 10 min at 0-4° C. and the supernatants were retained on ice (synaptosomal preparation).
(§2) After incubation to steady state, 850 μl of synaptosomes preloaded with [^3H]ligand were added to 12×75 mm polystyrene test tubes that contained 150 μl test drug in uptake buffer plus 1 mg/ml BSA. After 5 min (^3H]5-HT) or 30 min (NE and DA assays) the release reaction was terminated by dilution with 4 ml wash buffer (10 mM Tris-HCl pH 7.4 containing 0.9% NaCl at 25° C.) followed by rapid vacuum filtration over Whatman GF/B filters using a Brandel Harvester. The filters were rinsed twice with 4 ml wash buffer using the Brandel Harvester, and the retained tritium was counted by a Taurus liquid scintillation counter at 40% efficiency after an overnight extraction in 3 ml Cytoscint (ICN).
(§3) In substrate reversal experiments, statistical significance was determined using the Student's t-test.

The target in experiment [1] is T2, 5-HT2B receptor (Homo sapiens, UniProt P41595). As to the kind of experiment: 5-HT2B activity, agonist. The experiment is classed as cell-based.
T2 sequence (P41595 whole entry): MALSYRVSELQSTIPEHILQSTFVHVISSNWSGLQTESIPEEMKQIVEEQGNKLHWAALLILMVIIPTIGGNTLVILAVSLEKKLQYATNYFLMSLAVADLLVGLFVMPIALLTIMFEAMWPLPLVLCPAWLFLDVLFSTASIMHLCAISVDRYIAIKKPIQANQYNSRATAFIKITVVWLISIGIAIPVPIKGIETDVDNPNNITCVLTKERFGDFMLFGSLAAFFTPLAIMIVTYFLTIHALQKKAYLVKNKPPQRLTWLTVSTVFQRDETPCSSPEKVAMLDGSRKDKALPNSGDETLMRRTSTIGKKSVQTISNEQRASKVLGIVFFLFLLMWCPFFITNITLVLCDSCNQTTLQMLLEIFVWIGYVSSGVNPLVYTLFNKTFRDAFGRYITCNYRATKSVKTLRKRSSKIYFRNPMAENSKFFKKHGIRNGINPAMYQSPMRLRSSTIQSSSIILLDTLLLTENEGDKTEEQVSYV
Experiment [2] has as its target T2, 5-HT2B receptor. As to the kind of experiment: 5-HT2B activity, antagonist. Format: cell-based.
Experiment [3] addresses T3, DAT (Rattus norvegicus, UniProt P23977). The experiment can be described thus: DA release assay (synaptosomes, [3H]MPP+). Format: biochemical. More on the design: the supernatants were retained on ice (synaptosomal preparation); from tissue; host or cells: rat caudate synaptosomes. Conditions: for activation at 10 µM: Table 3. The method, then:
as §1, §2, §3

The target of experiment [4] is T4, SERT (Rattus norvegicus, UniProt P31652). As to the kind of experiment: 5-HT release assay (synaptosomes, [3H]5-HT). The experiment is classed as biochemical. Set-up: the supernatants were retained on ice (synaptosomal preparation); from tissue; host or cells: rat whole brain minus cerebellum and caudate, synaptosomes. Conditions: for activation at 10 µM: Table 3. The method, then: as §1, §2, §3
T4 sequence (P31652 whole entry): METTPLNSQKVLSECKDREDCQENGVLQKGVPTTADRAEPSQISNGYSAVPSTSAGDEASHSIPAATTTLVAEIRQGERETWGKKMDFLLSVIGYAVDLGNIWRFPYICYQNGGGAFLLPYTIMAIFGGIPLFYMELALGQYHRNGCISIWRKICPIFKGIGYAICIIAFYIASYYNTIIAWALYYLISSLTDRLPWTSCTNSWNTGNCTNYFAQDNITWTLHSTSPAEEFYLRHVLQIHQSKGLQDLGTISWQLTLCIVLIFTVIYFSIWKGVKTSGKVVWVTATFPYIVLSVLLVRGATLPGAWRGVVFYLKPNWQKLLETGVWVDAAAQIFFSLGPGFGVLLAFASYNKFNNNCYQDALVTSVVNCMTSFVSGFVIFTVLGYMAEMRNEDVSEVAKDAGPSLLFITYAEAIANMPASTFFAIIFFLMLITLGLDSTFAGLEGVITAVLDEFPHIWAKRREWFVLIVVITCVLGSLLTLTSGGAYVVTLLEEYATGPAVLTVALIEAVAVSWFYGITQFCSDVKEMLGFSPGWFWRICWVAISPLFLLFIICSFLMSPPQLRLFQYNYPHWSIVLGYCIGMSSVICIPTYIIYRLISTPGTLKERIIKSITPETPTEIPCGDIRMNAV

In experiment [5] the target is T4, SERT. The experiment can be described thus: 5HT uptake inhibition. Format: biochemical.
Experiment [6] has as its target T3, DAT. The experiment can be described thus: DA uptake inhibition. The experiment is classed as biochemical. Particulars: Table 5.

T3 sequence (P23977 whole entry): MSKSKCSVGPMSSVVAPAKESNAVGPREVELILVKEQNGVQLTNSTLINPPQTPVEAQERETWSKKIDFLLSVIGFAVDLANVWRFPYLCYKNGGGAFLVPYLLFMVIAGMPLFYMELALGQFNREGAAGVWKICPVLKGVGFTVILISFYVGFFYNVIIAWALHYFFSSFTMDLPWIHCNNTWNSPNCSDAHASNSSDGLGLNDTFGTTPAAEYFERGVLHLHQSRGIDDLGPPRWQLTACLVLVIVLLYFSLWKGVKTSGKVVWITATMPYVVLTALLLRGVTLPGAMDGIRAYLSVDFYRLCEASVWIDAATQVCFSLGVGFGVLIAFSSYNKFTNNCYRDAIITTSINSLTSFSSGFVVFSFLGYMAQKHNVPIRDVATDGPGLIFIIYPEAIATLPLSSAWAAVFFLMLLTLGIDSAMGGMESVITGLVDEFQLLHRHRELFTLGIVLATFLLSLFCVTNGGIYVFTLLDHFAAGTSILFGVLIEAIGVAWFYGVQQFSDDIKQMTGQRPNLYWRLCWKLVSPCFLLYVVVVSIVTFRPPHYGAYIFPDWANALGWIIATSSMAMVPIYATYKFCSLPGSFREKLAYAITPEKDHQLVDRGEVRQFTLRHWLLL
T1 sequence (Q63380 1-617): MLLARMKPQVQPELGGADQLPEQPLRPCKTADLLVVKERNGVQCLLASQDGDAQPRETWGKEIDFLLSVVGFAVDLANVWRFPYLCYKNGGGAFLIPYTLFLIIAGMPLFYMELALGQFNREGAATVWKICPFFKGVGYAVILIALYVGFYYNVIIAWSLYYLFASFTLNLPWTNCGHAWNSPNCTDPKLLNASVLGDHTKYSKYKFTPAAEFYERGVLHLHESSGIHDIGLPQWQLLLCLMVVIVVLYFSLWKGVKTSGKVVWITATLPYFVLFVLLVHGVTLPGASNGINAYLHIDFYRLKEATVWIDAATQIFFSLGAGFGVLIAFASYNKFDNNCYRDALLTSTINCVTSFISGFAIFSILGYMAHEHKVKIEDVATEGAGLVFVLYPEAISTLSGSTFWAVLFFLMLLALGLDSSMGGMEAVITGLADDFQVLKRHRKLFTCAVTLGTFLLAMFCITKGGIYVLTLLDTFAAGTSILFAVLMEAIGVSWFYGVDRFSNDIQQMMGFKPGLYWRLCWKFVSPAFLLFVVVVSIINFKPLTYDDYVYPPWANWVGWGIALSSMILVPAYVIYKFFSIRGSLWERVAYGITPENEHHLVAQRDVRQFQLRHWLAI

As to `CC1NCCOC1(O)c1cccc(F)c1` (stereo not drawn) [PAL587, 2-(3-fluorophenyl)-3-methylmorpholin-2-ol], the activation at 10 µM on NET was 67%; at 5-HT2B receptor [1], 0%; on DAT [3] it was 34%; on SERT [4] it was 6%. Moreover, on 5-HT2B receptor [2], testing at 1 µM gave an inhibition of 0%.
For `Cc1cccc(C2(O)OCCNC2C)c1` (stereo not drawn) [PAL589, 3-methyl-2-(3′-tolyl)morpholin-2-ol], the activation at 10 µM at NET is 47%; on 5-HT2B receptor [1] it was 0%; on DAT [3] it was 28%; at SERT [4] it was 56%. On 5-HT2B receptor [2], this molecule registered an inhibition at 1 µM of 12%.
Regarding `CC1NCCOC1(O)c1cccc(Cl)c1` (stereo not drawn) [PAL590, 2-(3-chlorophenyl)-3-methylmorpholin-2-ol], the activation at 10 µM was 62% on NET, 0% on 5-HT2B receptor [1], 39% at DAT [3] and 41% at SERT [4]. Further, the inhibition at 1 µM on 5-HT2B receptor [2] is 16%.
Take `CC1NCCOC1c1cccc(F)c1` (stereo not drawn) [PAL593, 2-(3-fluoro-phenyl)-3-methyl-morpholine]: the activation at 10 µM at NET came out at 93%; on 5-HT2B receptor [1], 0%; on DAT [3], 100%; at SERT [4] it was 95%. At 1 µM the inhibition on 5-HT2B receptor [2] was 1%.
Take `c1ccc(C2CNCCO2)cc1` (stereo not drawn) [PAL632]: the EC50 on NET (Table 4) turned out to be 79 nM; on DAT [3] it was 86 nM; at SERT [4] it was 20300 nM. Also, the activation at 10 µM at NET amounted to 96%; on 5-HT2B receptor [1] it was 2%; at DAT [3], 98%; on SERT [4], 31%. At 5-HT2B receptor [2], this molecule registered an inhibition at 1 µM of 12%.
Turning to `CC1NCCOC1c1ccc2ccccc2c1` (stereo not drawn) [PAL 704, 3-Methyl-2-(2′-Naphthyl)morpholine hydrochloride], the “NE releaser activity (in words)” value on NET was “DA/NE releasers”. Further, the response on NET (Table 4) was half-maximal at 203 nM (EC50). Besides, on SERT [5], the “5HT uptake inhibition (in words)” value amounted to 5HT uptake inhibitors and the 50% effective concentration (EC50) was determined as 105 nM. At DAT [3], the “DA releaser activity (in words)” value is given as “DA/NE releasers” and the concentration giving a half-maximal response (EC50) is 111 nM.
Take `CC1NCCOC1c1ccc(Cl)c(Cl)c1.Cl` (stereo not drawn) [PAL 788, 3-Methyl-[(3′,4′-Dichloro)-2-Phenyl]morpholine hydrochloride]: the “NE releaser activity (in words)” value on NET is given as “DA/NE releasers”. Also, on NET (Table 4, % EC50 of release), the “NE Rel (%)” value stood at 98%. For the same molecule, on SERT [5], the “5HT uptake inhibition (in words)” value stood at 5HT uptake inhibitors. Moreover, at SERT [5] (Table 4), the “5HT Up (%)” value was determined as 95%. Also, at DAT [3], the “DA releaser activity (in words)” value was “DA/NE releasers”. Moreover, the “DA Rel (%)” value at DAT [3] (Table 4, % EC50 of release) is on record as 60%.
As to `C[C@H]1CO[C@@H](c2ccc(Cl)cc2)CN1` [PAL 899, (2S,5S)-2-(4-Chloro-phenyl)-5-methyl-morpholine], the “DA Up (%)” value on DAT [6] turned out to be 90%.
Consider `Cc1ccc([C@H]2CN[C@@H](C)CO2)cc1` [PAL 914, (2S,5S)-5-Methyl-2-p-tolyl-morpholine], for which the “DA Up (%)” value on DAT [6] turned out to be 88%.

A word on the inhibition: it is the change of the read-out against control, counted positive when it falls. Higher therefore signals a response far below the control. What is called EC50 is the midpoint of the concentration-response curve. The low end stands for a more potent agent, the high end for a less potent agent.
